Measured values taken from article PMC3665846, “Evolution of a Potential Hormone Antagonist following Gene Splicing during Primate Evolution” (PLoS ONE, 2013).
Values belong to the substance of their own block, whether it stands above or below them. No end group written: not given here.

Experiments:
SK-PN-DW cells = assay: Ewing tumor cell growth, SK-PN-DW, crystal violet staining; assay type: cell-based; details: CCK-8 0.1 uM, 6 days; for suppression of CCK-stimulated growth, SK-PN-DW: serum-free, CCKsv 30 min pre-treatment, at least 3 independent experiments
Protocol: (§1) SK-N-MC and SK-PN-DW cells (1×10^5) were plated in 12-well plates and allowed to attach for 24–36 h. Cells were then cultured in serum-free media with 0.1 uM of the CCK-8 peptide with or without the CCKsv peptide. Fresh media containing peptides were replaced every two days. […] Cell growth was determined by crystal violet staining.

CCKB receptor [1] = assay: CCKB receptor luciferase reporter assay, agonism; assay type: cell-based; details: 18 h
Protocol: (§2) HEK293T cells seeded in 24-well plates were co-transfected by various luciferase reporters (30 ng), the pSV-β-Gal plasmid (3 ng), and the CCKA or CCKB receptor (30 ng). After 1 day, cells were treated in serum-free media for another 18 h with increasing doses of the CCK-8 or CCKsv peptide. For the estimation of antagonistic activities, cells were pre-incubated (30 min.) with the CCKsv peptide before treatment with CCK8 for 18 h. Luciferase activities were determined using luciferase assay kits (Promega) and normalized using β-galactosidase activities. All experiments were performed at least three times in triplicates. Data were analyzed using Graphpad Prism 5.0.

SK-N-MC cells = assay: Ewing tumor cell growth, SK-N-MC, crystal violet staining; assay type: cell-based, human; details: CCK-8 0.1 uM, 6 days; for suppression of CCK-stimulated growth, SK-N-MC: serum-free, CCKsv 30 min pre-treatment, at least 3 independent experiments
Protocol: as §1

CCKA receptor [2] = assay: CCKA receptor luciferase reporter assay, agonism; assay type: cell-based; details: 18 h, CRE-, SRE-, NFAT-
Protocol: as §2

[3] = test system: release of pancreatic enzymes and the contraction of the gallbladder; details: ref [10]–[12]; cited from earlier work
Description: Alternative splicing allows the generation of various gene products with different functions from a single gene and is a major mechanism of generating protein diversity in eukaryotes [1]–[5]. At least half, or more, of mammalian genes can be alternatively spliced, [2]. Thus, alternative splicing emerges as a major mechanism of generating protein diversity and splicing of coding regions in peptide hormone genes often results in additional protein domains. Calcitonin and calcitonin-related polypeptide represent the classical example of novel hormone evolution from the same gene ...

[4] = test system: various cancer cell lines; details: ref [23]–[27]; cited from earlier work
Protocol: Because treatment with a CCK antagonist inhibits proliferation of Ewing tumor cells, CCK antagonist could represent a new therapeutic approach in the management of Ewing's tumor patients. To further confirm the potential antagonist function of CCKsv, we checked if CCKsv could inhibit Ewing tumor cell growth stimulated by CCK. Two Ewing tumor cell lines (SK-N-MC and SK-PN-DW) were cultured with the CCK-8 peptide (0.1 uM) in the presence or absenc ...

CCKB receptor [5] = assay: CCKB receptor luciferase reporter assay, antagonism of CCK-8; assay type: cell-based
Protocol: as §2

LGR7 = assay: relaxin-stimulated CRE-luciferase activity in LGR7-expressing cells (specificity control); assay type: cell-based; details: CCKsv 0.1 uM or 1 uM, co-treatment with relaxin, Fig. S6
CCKA receptor [6] = assay: CCKA receptor luciferase reporter assay, antagonism of CCK-8; assay type: cell-based; details: CCKsv 0.1 uM or 1 uM, 30 min pre-incubation
Protocol: as §2

Substance: CCK-8: CCK-8 peptide purchased from Phoenix Pharmaceuticals Inc. [reference compound]
- Ewing tumor cell growth with CCK-8, SK-PN-DW (SK-PN-DW cells; serum-free media, replaced every two days, Fig. 4B): growth stimulated by CCK-8 peptide
- stimulation of luciferase reporters by CCK-8 via CCKB (CCKB receptor [1]; HEK293T cells co-transfected with reporter, pSV-β-Gal and CCKB, serum-free, CRE-, SRE-, NFAT-, SRF-RE reporters screened, normalized to β-galactosidase, at least three times in triplicates): stimulation of CRE-, SRE- and SRF-RE reporters
- responsiveness to CCK-8 of cells with CRE reporter and CCKB receptor (CCKB receptor [1]; HEK293T, CRE-luciferase, CCKB, compared with other reporter/receptor combinations (Fig. 3C)): most responsive to CCK-8 peptide stimulation
- Ewing tumor cell growth with CCK-8, SK-N-MC (SK-N-MC cells; serum-free media, replaced every two days, Fig. 4A): growth stimulated by CCK-8 peptide
- stimulation of luciferase reporters by CCK-8 via CCKA (CCKA receptor [2]; HEK293T cells co-transfected with reporter, pSV-β-Gal and CCKA, serum-free, SRF-RE reporters screened, normalized to β-galactosidase, at least three times in triplicates): stimulated CRE- and SRF-RE reporters via CCKA

Substance: Cholecystokinin [CCK]
- release of pancreatic enzymes and gallbladder contraction [3]: induce the release of pancreatic enzymes and the contraction of the gallbladder
- cell proliferation in cancer cell lines [4]: induces cell proliferation

- suppression of CCK-8-stimulated CRE luciferase activity (CCKB receptor [5]; Fig. 3C, HEK293T + CCKB, CRE reporter, 1 uM CCKsv (30 min pre-incubation), CCK-8 30 nM, 18 h): ~60%
- inhibition of CCK-8-stimulated CRE luciferase activity, CCKB (CCKB receptor [5]; Fig. 3C, HEK293T, CCKsv 0.1 uM or 1 uM, 30 min pre-incubation, increasing doses of CCK-8, 18 h): inhibited
- suppression of CCK-8-stimulated SRF luciferase activity (CCKB receptor [5]; Fig. 3D, HEK293T + CCKB, SRF reporter, 1 uM CCKsv (30 min pre-incubation), CCK-8 30 nM, 18 h): ~60%
- inhibition of CCK-8-stimulated SRF luciferase activity, CCKB (CCKB receptor [5]; Fig. 3D, HEK293T, CCKsv 0.1 uM or 1 uM, 30 min pre-incubation, increasing doses of CCK-8, 18 h): inhibited
- inhibition of CCK-8-stimulated SRE luciferase activity, CCKB (CCKB receptor [5]; Fig. 3E, HEK293T, CCKsv 0.1 uM or 1 uM, 30 min pre-incubation, increasing doses of CCK-8, 18 h): inhibited
- inhibition of CCK-8-stimulated CRE luciferase activity, CCKA (CCKA receptor [6]; Fig. 3A, HEK293T, increasing doses of CCK-8, 18 h): inhibited
- inhibition of CCK-8-stimulated SRF luciferase activity, CCKA (CCKA receptor [6]; Fig. 3B, HEK293T, increasing doses of CCK-8, 18 h): inhibited
Substance: GKNAASPSLTSALVPRLPMLTLFSSASLMGMTSL-amidated (GKNAASPSLTSALVPRLPMLTLFSSASLMGMTSL-NH2) [CCKsv, splicing variant of human CCK; predicted mature peptide chemically synthesized, C-terminally amidated]
- suppression of CCK8 actions by CCKsv pretreatment, CCKB (CCKB receptor [5]; HEK293T + CCKB, CCKsv 0.1 uM or 1 uM, 30 min pre-incubation, then CCK-8 (various doses) 18 h, luciferase): dose-dependent suppression of CCK8 actions
- suppression of CCK-stimulated growth, SK-PN-DW (SK-PN-DW cells; 0.1 uM CCKsv, Fig. 4B): 18%
- suppression of CCK-stimulated growth, SK-PN-DW (SK-PN-DW cells; 1 uM CCKsv, Fig. 4B): 31%
- effect of CCKsv on CCK-stimulated growth, SK-PN-DW (SK-PN-DW cells; CCKsv 0.1 uM or 1 uM): dose-dependently reduced CCK-stimulated growth
- effect on luciferase activity stimulated by relaxin (LGR7): did not alter relaxin signaling
- stimulation of G protein pathways by CCKsv via CCKB (agonism) (CCKB receptor [1]; HEK293T + CCKB, CRE-, SRE-, NFAT-, SRF-RE-luciferase (Gs, Gi, Gq, G12), Fig. S5): not capable of stimulating different G proteins (Gs, Gi, Gq, and G12)
- suppression of CCK-stimulated growth, SK-N-MC (SK-N-MC cells; 0.1 uM CCKsv, Fig. 4A): 22%
- suppression of CCK-stimulated growth, SK-N-MC (SK-N-MC cells; 1 uM CCKsv, Fig. 4A): 38%
- effect of CCKsv on CCK-stimulated growth, SK-N-MC (SK-N-MC cells; CCKsv 0.1 uM or 1 uM): dose-dependently reduced CCK-stimulated growth
- suppression of CCK8 actions by CCKsv pretreatment, CCKA (CCKA receptor [6]; HEK293T + CCKA, then CCK-8 (various doses) 18 h, luciferase): dose-dependent suppression of CCK8 actions
- stimulation of G protein pathways by CCKsv via CCKA (agonism) (CCKA receptor [2]; HEK293T + CCKA, SRF-RE-luciferase (Gs, Gi, Gq, G12), Fig. S5): not capable of stimulating different G proteins (Gs, Gi, Gq, and G12)
